The supplement of paper PMC8612539
Converted amounts (≈) assume the structure as drawn.

How the values were obtained:
Pasteurella multocida = assay: minimum inhibitory concentration (MIC)
Method: (§1)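 Broth microdilution MIC (Sensititre BOPO7F bovine plate, CLSI methods) of 19 antimicrobials against field isolates of P. multocida, M. haemolytica, H. somni (deep nasopharyngeal swabs) and E. coli, Enterococcus spp. (rectal swabs) from weaned dairy heifers. Incubation 16-24 h at 35 C. MIC is the lowest concentration preventing visible growth. Values with <= or > lie at the tested range limits. Trimethoprim-sulfamethoxazole is given as the trimethoprim component of a 1:19 mixture.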

Enterococcus spp. = assay: minimum inhibitory concentration (MIC)
Method: as §1

CO/N=C(\C(=O)N[C@@H]1C(=O)N2C(C(=O)O)=C(CSC(=O)c3ccco3)CS[C@H]12)c1csc(N)n1 [Ceftiofur]
minimum inhibitory concentration [µg/mL]
Conditions | Enterococcus spp. | Pasteurella multocida
isolate (source animal id): 2 | > 8 | –
isolate (source animal id): 10 | – | ≤ 0.25
isolate (source animal id): 11 | – | ≤ 0.25
isolate (source animal id): 12 | – | ≤ 0.25
isolate (source animal id): 19 | – | ≤ 0.25
isolate (source animal id): 23 | – | ≤ 0.25
isolate (source animal id): 26 | – | ≤ 0.25
isolate (source animal id): 35 | > 8 | –
isolate (source animal id): 42 | 8 (≈ 15.3 µM) | –
isolate (source animal id): 44 | 2 (≈ 3.82 µM) | –
isolate (source animal id): 79 | 4 (≈ 7.64 µM) | –
isolate (source animal id): 88 | 0.5 (≈ 0.955 µM) | –
isolate (source animal id): 91 | 0.5 (≈ 0.955 µM) | –
isolate (source animal id): 92 | > 8 | –
isolate (source animal id): 98 | – | ≤ 0.25
isolate (source animal id): 104 | – | ≤ 0.25
isolate (source animal id): 111 | 0.5 (≈ 0.955 µM) | –
isolate (source animal id): 115 | – | ≤ 0.25
isolate (source animal id): 117 | – | ≤ 0.25
isolate (source animal id): 118 | – | ≤ 0.25
isolate (source animal id): 121 | – | ≤ 0.25
isolate (source animal id): 122 | > 8 | –
isolate (source animal id): 123 | > 8 | –
isolate (source animal id): 124 | – | ≤ 0.25
isolate (source animal id): 125 | – | ≤ 0.25
isolate (source animal id): 128 | – | ≤ 0.25
isolate (source animal id): 131 | – | ≤ 0.25
isolate (source animal id): 133 | > 8 | –
isolate (source animal id): 135 | – | ≤ 0.25
isolate (source animal id): 136 | – | ≤ 0.25
isolate (source animal id): 140 | – | ≤ 0.25
isolate (source animal id): 144 | – | ≤ 0.25
isolate (source animal id): 146 | – | ≤ 0.25
isolate (source animal id): 150 | – | ≤ 0.25
isolate (source animal id): 151 | – | ≤ 0.25
isolate (source animal id): 153 | – | ≤ 0.25
isolate (source animal id): 155 | – | ≤ 0.25
isolate (source animal id): 157 | – | ≤ 0.25
isolate (source animal id): 158 | > 8 | –
isolate (source animal id): 160 | – | ≤ 0.25
isolate (source animal id): 164 | – | ≤ 0.25
isolate (source animal id): 165 | – | ≤ 0.25
isolate (source animal id): 167 | – | ≤ 0.25
isolate (source animal id): 168 | > 8 | ≤ 0.25
isolate (source animal id): 169 | > 8 | ≤ 0.25
isolate (source animal id): 170 | – | ≤ 0.25
isolate (source animal id): 171 | > 8 | ≤ 0.25
isolate (source animal id): 172 | – | ≤ 0.25
isolate (source animal id): 173 | – | ≤ 0.25
isolate (source animal id): 174 | – | ≤ 0.25
isolate (source animal id): 175 | > 8 | 1 (≈ 1.91 µM)
isolate (source animal id): 176 | – | ≤ 0.25
isolate (source animal id): 177 | > 8 | ≤ 0.25
isolate (source animal id): 178 | – | ≤ 0.25
isolate (source animal id): 179 | – | ≤ 0.25
isolate (source animal id): 181 | > 8 | –
isolate (source animal id): 182 | > 8 | ≤ 0.25
isolate (source animal id): 183 | 4 (≈ 7.64 µM) | –
isolate (source animal id): 187 | > 8 | –
isolate (source animal id): 190 | > 8 | –
isolate (source animal id): 192 | – | ≤ 0.25
isolate (source animal id): 193 | – | ≤ 0.25
isolate (source animal id): 194 | > 8 | –
isolate (source animal id): 195 | > 8 | ≤ 0.25
isolate (source animal id): 196 | – | ≤ 0.25
isolate (source animal id): 197 | 4 (≈ 7.64 µM) | ≤ 0.25
isolate (source animal id): 198 | – | ≤ 0.25
isolate (source animal id): 199 | – | ≤ 0.25
isolate (source animal id): 200 | – | ≤ 0.25
isolate (source animal id): 201 | – | ≤ 0.25
isolate (source animal id): 203 | – | ≤ 0.25
isolate (source animal id): 204 | – | ≤ 0.25
isolate (source animal id): 205 | – | ≤ 0.25
isolate (source animal id): 206 | – | ≤ 0.25
isolate (source animal id): 207 | – | ≤ 0.25
isolate (source animal id): 208 | – | ≤ 0.25
isolate (source animal id): 209 | – | ≤ 0.25
isolate (source animal id): 210 | – | ≤ 0.25
isolate (source animal id): 211 | > 8 | –
isolate (source animal id): 213 | – | ≤ 0.25
isolate (source animal id): 214 | 8 (≈ 15.3 µM) | –
isolate (source animal id): 216 | – | ≤ 0.25
isolate (source animal id): 222 | > 8 | –
isolate (source animal id): 223 | > 8 | ≤ 0.25
isolate (source animal id): 227 | – | ≤ 0.25
isolate (source animal id): 228 | > 8 | –
isolate (source animal id): 229 | – | ≤ 0.25
isolate (source animal id): 230 | > 8 | –
isolate (source animal id): 233 | – | ≤ 0.25
isolate (source animal id): 234 | – | ≤ 0.25
isolate (source animal id): 235 | > 8 | –
isolate (source animal id): 236 | > 8 | –
isolate (source animal id): 237 | – | ≤ 0.25
isolate (source animal id): 239 | 2 (≈ 3.82 µM) | –
isolate (source animal id): 241 | > 8 | ≤ 0.25
isolate (source animal id): 244 | > 8 | –
isolate (source animal id): 245 | – | ≤ 0.25
isolate (source animal id): 246 | > 8 | –
isolate (source animal id): 247 | > 8 | ≤ 0.25
isolate (source animal id): 250 | > 8 | ≤ 0.25
isolate (source animal id): 252 | > 8 | –
isolate (source animal id): 254 | – | ≤ 0.25
isolate (source animal id): 255 | – | ≤ 0.25
isolate (source animal id): 258 | – | ≤ 0.25
isolate (source animal id): 261 | – | ≤ 0.25
isolate (source animal id): 262 | – | ≤ 0.25
isolate (source animal id): 268 | 0.5 (≈ 0.955 µM) | –
isolate (source animal id): 269 | – | ≤ 0.25
isolate (source animal id): 270 | – | ≤ 0.25
isolate (source animal id): 274 | – | ≤ 0.25
isolate (source animal id): 275 | – | ≤ 0.25
isolate (source animal id): 276 | – | ≤ 0.25
isolate (source animal id): 277 | – | ≤ 0.25
isolate (source animal id): 278 | – | ≤ 0.25
isolate (source animal id): 279 | – | ≤ 0.25
isolate (source animal id): 280 | – | ≤ 0.25
isolate (source animal id): 282 | > 8 | –
isolate (source animal id): 284 | – | ≤ 0.25
isolate (source animal id): 285 | > 8 | ≤ 0.25
isolate (source animal id): 287 | – | ≤ 0.25
isolate (source animal id): 289 | 8 (≈ 15.3 µM) | –
isolate (source animal id): 290 | 8 (≈ 15.3 µM) | ≤ 0.25
isolate (source animal id): 294 | – | ≤ 0.25
isolate (source animal id): 295 | – | ≤ 0.25
isolate (source animal id): 296 | > 8 | ≤ 0.25
isolate (source animal id): 298 | ≤ 0.25 | –
isolate (source animal id): 301 | 8 (≈ 15.3 µM) | –
isolate (source animal id): 307 | – | ≤ 0.25
isolate (source animal id): 310 | > 8 | ≤ 0.25
isolate (source animal id): 311 | – | ≤ 0.25
isolate (source animal id): 312 | – | ≤ 0.25
isolate (source animal id): 313 | – | ≤ 0.25
isolate (source animal id): 315 | – | ≤ 0.25
isolate (source animal id): 316 | – | ≤ 0.25
isolate (source animal id): 320 | 8 (≈ 15.3 µM) | –
isolate (source animal id): 331 | 2 (≈ 3.82 µM) | –
isolate (source animal id): 333 | 2 (≈ 3.82 µM) | –
isolate (source animal id): 341 | 2 (≈ 3.82 µM) | –
